Assays:
[1] = tested on: total HDAC enzyme (HeLa extract); test: In vitro inhibition of total HDAC enzyme activity (HDAC Fluorimetric Assay/Drug Discovery Kit, BIOMOL); assay type: biochemical, human
Protocol: Measurement of in vitro inhibition of total HDAC enzyme activity:
The in vitro inhibition of total HDAC enzyme was determined by HDAC Fluorimetric Assay/Drug Discovery Kit (BIOMOL) according to manufacture's instruction. • 1. Add Assay buffer, diluted trichostatin A or test inhibitor to appropriate wells of the microtiter plate. Following table lists examples of various assay types and the additions required for each test.
• 2. Add diluted HeLa extract or other HDAC sample to all wells except those that are to be “No Enzyme Controls” (Blank). • 3. Allow diluted Fluor de LyS™ Substrate and the samples in the microtiter plate to equilibrate to assay temperature (25° C.). • 4. Initiate HDAC reactions by adding diluted substrate (25 μl) to each well and mixing thoroughly. • 5. Allow HDAC reactions to proceed for desired length of time and then stop them by addition of Fluor de Lys™ Developer (50 μl). Incubate plate at room temperature (25° C.) for 10-15 min. • 6. Read samples in a microtiter-plate reading fluorimeter capable of excitation at a wavelength in the range 350-380 nm and detection of emitted light in the range 440-460 nm.

[2] = tested on: HDAC3 (gdf11 reporter gene); test: HDAC subtype reporter gene assay, gdf11-promoter luciferase in HeLa cells; assay type: cell-based; details: Homo sapiens, M-HeLa, read-out: % of SAHA Response for HDAC3 at 10 μM (gdf11 reporter gene), 24 hours
[3] = tested on: HDAC4/5 (MEF2 reporter gene); test: HDAC subtype reporter gene assay, MEF-binding element (MEF2) luciferase in HeLa cells; assay type: cell-based; details: Homo sapiens, M-HeLa, read-out: % of SAHA Response for HDAC4/5 at 10 μM (MEF2 reporter gene), 24 hours
[4] = tested on: lysine acetylation; test: ELISA assay of acetylation of lysine in HeLa cells; assay type: cell-based; details: Homo sapiens, M-HeLa, 24 hours
From the text: Measurement of acetylation activity in cells on substrates:
ELISA Assay of Acetylation of Lysine
This assay is used to measure in vivo inhibition of HDAC6 in a cytoblot assay.
Materials and Reagent: • 1. 24-well tissue culture • 2. DMEM Medium containing 10% FBS • 3. 96-well white plate • 4. HeLa cell line • 5. M-PER Mammalian Protein Extraction Reagent (Pierce) • 6. Bradford assay reagent • 7. Acetylated-lysine polyclonal Antibody (Cell Signaling) • 8. HRP-labeled anti-rabbit IgG (Upstate) • 9. Coating Buffer: 15 mM Na2CO3, 35 mM NaHCO3 (pH 9.6) • 10. 10×PBS: 0.58M Na2HPO4, 0.17M NaH2PO4, 0.68M NaCl (pH 7.4) • 11. Wash Buffer:1×PBS containing 0.05% Tween-20 (PBST) • 12. Blocking Buffer:10 mg/ml bocine serum albumin (BSA) in PBS • 13. Antibody Dilution Buffer: 5 mg/ml BSA in PBST • 14. Enhanced chemiluminescence (ECL) (Amersham)
Procedure for performing the assay in 96-well plate: • 1. HeLa cells were seeded at a density of 60000 cells/500 μl/well in 24-well plate and incubated at 37° C. for 24 hours. • 2. Compounds were added and incubated for 24 hours at 37° C. • 3. Culture medium was removed, then washes the cells twice with ice-cold PBS. • 4. Add 100 μl/well of Protein Extraction Reagent and gently shake the mixture for 5 minutes. • 5. Collect the lysate to a 96-well plate respectively. Determine the concentration of protein by Bradford assay. • 6. Coat the wells of a 96-well white plate with 100 μl/well of 2.5 μg whole cell protein in Coating Buffer by incubating overnight at 4° C. • 7. Discard the uncoated proteins and wash the coated wells three times with 200 μl/well of PBST. • 8. Block coated wells by incubating the plate with 200 μl/well of Blocking Buffer for 1 hour at 37° C. • 9. Wells were aspirated and washed three times with 200 μl/well of PBST. • 10. After aspirating, 50 μl/well of Antibody Dilution Buffer containing acetylated-lysine polyclonal antibody (1:1000) were added to each well and incubated for 2 hour at 37° C. • 11. Wells were aspirated and washed three times with 200 μl/well of PBST. • 12. 50 μl/well of Antibody Dilution Buffer containing HRP-labeled anti-rabbit IgG (1:2000) were added to each well and incubated for 2 hour at 37° C. • 13. Wells were aspirated and washed three times with 200 μl/well of PBST. • 14. Wells were washed three times with 200 μl/well of purified water. • 15. Add 50 μl/well of ECL mixture, then read the plates on the plate reader.

[5] = tested on: Hut-78 human T lymphoma cell line; test: Anti-cell proliferation (MTS), Hut-78; assay type: cell-based; details: HuT78, 72 hours
Protocol: (§1) Measurement of in vivo cell proliferation:
(§2) Tumor cells were trypsinized and plated into 96-well plates at 3,000 per well and incubated in complete medium with 10% FBS for 24 hours. Compounds were added over a final concentration range of 100 μmol/L to 100 nmol/L in 0.1% DMSO and incubated for 72 hours in complete medium. The effects on proliferation were determined by addition of MTS reagent (Promega) according to the instruction, incubation for 2 hours at 37° C. in CO2 incubator, and record the absorbance at 490 nm using an ELISA plate reader.

[6] = tested on: HL60 human leukemia cell line; test: Anti-cell proliferation (MTS), HL60; assay type: cell-based; details: HL-60, 72 hours
Protocol: as §1, §2

[7] = tested on: HeLa human cervical cancer cell line; test: Anti-cell proliferation (MTS), HeLa; assay type: cell-based; details: 72 hours
Protocol: as §1, §2

[8] = tested on: A549 human lung cancer cell line; test: Anti-cell proliferation (MTS), A549; assay type: cell-based; details: 72 hours
Protocol: as §1, §2

% of Inhibition on Total HDAC Enzyme at 30 μM [1]	GI50 [5]	GI50 [6]	GI50 [7]	GI50 [8]	Structure (SMILES)	Emax at 10 µM [2]	Emax at 10 µM [3]	fold induction at 10 µM [4]
−3%	6.76 µM	3.98 µM	20.9 µM	35.5 µM	Nc1cc(F)ccc1NC(=O)CCCCNC(=O)c1cccc(/C=C2\C(=O)Nc3ccc(F)cc32)c1 [Example 50, 5-(3-((5-fluoro-2-oxoindolin-3-ylidene)methyl)benzamido)-N-(2-amino-4-fluorophenyl)pentanamide]	4%	43%	1.08
40%	3.89 µM	2.46 µM	18.2 µM	24 µM	Nc1ccccc1NC(=O)CCCCCCCNC(=O)c1cccc(/C=C2\C(=O)Nc3ccc(F)cc32)c1 [Example 54, 8-(3-((5-fluoro-2-oxoindolin-3-ylidene)methyl)benzamido)-N-(2-aminophenyl)octanamide]	52%	53%	1.34
93%	4.57 µM	5.62 µM	17.4 µM	28.8 µM	O=C(CCCCCCCNC(=O)c1cccc(/C=C2\C(=O)Nc3ccc(F)cc32)c1)NO [Example 56, 8-(3-((5-fluoro-2-oxoindolin-3-ylidene)methyl)benzamido)-N-hydroxyoctanamide]	56%	62%	1.7

— US7863315B2, “2-indolinone derivatives as selective histone deacetylase inhibitors” (Shenzhen Chipscreen Biosciences, Ltd., priority 2008, dated 2011)
